# Source: patent publication US9012507B2, “Lipid-lowering antidiabetic agent” (Thetis Pharmaceuticals LLC, priority 2011, dated 2015)
# Key:
# [1] = physchem
# Procedure: Measurement of the water solubility of the test compounds is accomplished by using methods well known to those skilled in the art. […] The total volume of the solution is measured. […] This is a clear indication of an unexpectedly high degree of bioavailability of the compositions of the invention. Highly water soluble medicinal preparations, when administered orally, result in efficient absorption of such preparations from the gastrointestinal tract into systemic circulation. Such preparations permit rapid absorption into the blood stream resulting in a high concentration of the active agent in the blood. Furthermore, water soluble preparations are especially suitable for parenteral administration, for example, intravenous administration.
# [2] = Air and light sensitivity observed on isolation and storage; type: physicochemical; settings: isolated solid; therefore stored in an amber vial under nitrogen
# Procedure: The reaction flask was covered in foil to protect it from light. After stirring for 1 h at room temperature, the mixture was chilled to 0° C. for 1 h, and then filtered under an atmosphere of nitrogen. The solid was washed with 50 mL ice-cold acetonitrile and then quickly transferred to a foil-covered round bottom flask and placed under high vac.
Compound,"solubility ([1]; water, thermodynamic from solid)",sensitivity to air and light [2],times more soluble in water than EPA ([1]; ratio of water solubility versus EPA itself)
"CC/C=C\C/C=C\C/C=C\C/C=C\C/C=C\CCCC(=O)O [EPA, (5Z,8Z,11Z,14Z,17Z)-eicosa-5,8,11,14,17-pentaenoic acid, reference compound]",< 0.2 mg/mL,–,–
"CC/C=C\C/C=C\C/C=C\C/C=C\C/C=C\CCCC(=O)O.CN(C)C(=N)NC(=N)N [Example 1, {[Amino(imino)methyl]amino}(dimethylamino)methaniminium (5Z,8Z,11Z,14Z,17Z)-eicosa-5,8,11,14,17-pentaenoate]",–,air and light sensitive,≥ 250 times
